Results published in PubChem BioAssay AID179 (DTP/NCI, 2004).
Calls of active or inactive are those of the source.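 The calls were made as follows: active = compounds giving half or more protection of infected cells from virus-caused growth loss, again on retest; inactive = the rest.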 *1 amine or outer side, *2 acyl side, *3 side chain or, on linkers, in order; H or OH if unused. Where a SMILES comes first, the peptide text is derived from it. Bridges are numbered along the chain shown (N, C = ends). [ ]: non-standard residue; d: D form. The star is where a group is joined. X12 = O=C(C1CCCNN1[*:1])[*:2]; For = O=C*

System: CEM cells HIV-1 protection, formazan growth assay
Test: NCI AIDS Antiviral Assay
Details: for IC50: measured here: growth of uninfected CEM cells
Procedure, shortened: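 Human CEM cells, uninfected and HIV-1-infected, exposed to five drug concentrations; growth measured by soluble formazan assay and scored as percent protection from infection, with protecting compounds retested.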

Row | SMILES | EC50 [µM] | IC50 [µM] | outcome
1 | COc1ccc(-c2c3c(nc4nc(SCC(=O)c5ccc(Br)cc5)nc(N)c24)CCCC3)cc1OC | > 200 | 151 | –
2 | O=C1C(F)=CC(COC(c2ccccc2)(c2ccccc2)c2ccccc2)OC1n1cc(F)c(=O)[nH]c1=O (stereo not drawn) | > 2 | 0.479 | –
3 | O=C(OCCc1ccccc1)c1ccc2c(O)c(O)ccc2c1 | > 8.32 | 6.03 | –
4 | CC1(c2cccc3ccccc23)OC(=O)c2cccc(F)c21 (stereo not drawn) | > 36.3 | 5.89 | –
5 | COC(=O)C(C(=O)C(=O)Nc1ccccc1OC)c1csc(-n2nc(-c3ccccc3)cc2-c2ccccc2)n1 (stereo not drawn) | > 115 | 97.7 | –
6 | Cn1c(=O)n2n(c1=O)C1C3C4C3C3C5(COCC135)C42 (stereo not drawn) | > 200 | > 200 | –
7 | C[C@]12CC[C@@H]3c4ccc(OS(N)(=O)=O)cc4CC[C@H]3[C@@H]1CCC2=O | – | – | inactive
8 | CC(=O)Oc1c(C)c2c(c3ccccc13)OC(C)(C)C2 | > 200 | 24 | –
9 | Cc1ccc2oc(=O)c3c(O)c4cccc(OC5OC(C)C6O[C@@H](c7ccccc7)OC6C5OC5OC(C)C(O)C(O)C5O)c4c4oc(=O)c1c2c34 (stereo partly drawn) | > 7.24 | 0.0324 | –
10 | CS(=O)(=O)N1CC(CCl)c2ccc(NO)cc21 (stereo not drawn) | > 200 | 3.72 | –
11 | Cc1cc(=O)oc2c3c(ccc12)OC(C)(C)[C@H](OC(=O)C12CCC(C)(C(=O)O1)C2(C)C)[C@@H]3OC(=O)C12CCC(C)(C(=O)O1)C2(C)C (stereo partly drawn) | 0.0759 | > 200 | –
12 | CC1CC(C)(C)N=C(CCCO)O1 (stereo not drawn) | > 200 | > 200 | –
13 | CC(=O)[O-].CCCCCCC/C=N/[N-]C(=O)c1ccncc1.[Co+2].[OH3+].[OH3+].[OH3+].[OH3+] | > 200 | 115 | –
14 | CCOC(=O)C(=CNc1cccc(NC=C(C(=O)OCC)C(=O)OCC)c1)C(=O)OCC | > 200 | 19.1 | –
15 | Cc1c(C)c2cc3c(=O)c(CCl)coc3c(C)c2oc1=O | > 17 | > 17 | –
16 | COC(=O)c1coc(CC/C(C)=C/c2ccccc2)n1 | > 200 | 126 | –
17 | c1ccc(CN2CCCCC(Sc3ccccc3)CC2)cc1 (stereo not drawn) | > 43.7 | 34.7 | –
18 | CCC1(O)C(=O)OCc2c1cc1n(c2=O)Cc2cc3cc(N)ccc3nc2-1 (stereo not drawn) | > 0.1 | 0.0794 | –
19 | CC[C@]1(Cc2ccc(OC)c(OC)c2)[C@@H]2C[C@@H](C3OCCO3)ON2O[C@H](OC2CCCC2(c2ccccc2)c2ccccc2)[C@@H]1OC(C)=O (stereo partly drawn) | > 200 | 21.9 | –
20 | O=C(O)CC[N+]1=CCC(c2ccccc2)(c2ccccc2)O1 | > 832 | > 832 | –
21 | N#Cc1c(-c2ccc(Cl)cc2)c(C#N)c(=O)n(NS(=O)(=O)c2ccccc2)c1-c1ccccc1 | > 151 | 32.4 | –

Row | SMILES | EC50 [µM] | IC50 [µM] | outcome
22 | CCOC(=O)c1ccc(C(=O)n2ccnc2)[nH]1 | > 200 | > 200 | –
23 | O=c1[nH]c2cc([N+](=O)[O-])ccc2nc1/C(=N/Nc1ccccc1)C(O)c1ccc(C(O)/C(=N\Nc2ccccc2)c2cnc3cc([N+](=O)[O-])ccc3n2)cc1 (stereo not drawn) | > 49 | 17 | –
24 | C[C@]12CCC3[C@@H](CCC4(C=N)CC(=O)CC[C@]34C)C1CC[C@@H]2O (stereo partly drawn) | – | – | inactive
25 | O=C(O)c1cocc1C(=O)O | – | – | inactive
26 | COC(C/C(=C/CO[Si](C(C)C)(C(C)C)C(C)C)C(=O)N(C(=O)OC(C)(C)C)c1ccccc1I)OC | > 200 | 77.6 | –
27 | O=C(N/N=C\c1ccc([N+](=O)[O-])s1)c1ccncc1 | > 200 | 8.71 | –
28 | CCC(C(=O)NNC(=O)c1cc(OC)c(OC)c(OC)c1)c1ccccc1 (stereo not drawn) | > 200 | 195 | –
29 | CN1c2ccccc2NC(CC(=O)O)C2CC=CN21 (stereo not drawn) | > 955 | 631 | –
30 | O=C1CCSC2=NCCN12 | – | – | inactive
31 | CC(C)(C)c1cc2c(OC/C=C/c3ccccc3)c(c1)Cc1cc(C(C#N)(OC/C=C/c3ccccc3)OC/C=C/c3ccccc3)cc(c1OC/C=C\c1ccccc1)Cc1cc(C(C)(C)C)cc(c1OC/C=C/c1ccccc1)Cc1cc(C(C#N)(OC/C=C\c3ccccc3)OC/C=C/c3ccccc3)cc(c1OC/C=C\c1ccccc1)C2 (stereo not drawn) | > 100 | > 100 | –
32 | O=P(c1ccccc1)(c1ccccc1)C1CC=C(c2ccccc2)C2(CCCC2)C1 (stereo not drawn) | > 8.71 | > 8.71 | –
33 | C=CCC(O)C1=CC(=O)c2c(O)ccc(O)c2C1=O (stereo not drawn) | – | – | inactive
34 | CCC(C)C(NC=O)C(=O)NC1C(=O)NC(CC(C)C)C(=O)NC(C(C)C)C(=O)N2NCCCC2C(=O)NC(CC(C)C)C(=O)N2NCCCC2C(=O)OC1C (stereo not drawn) (For-ITLV[X12]L[X12]; ester 2-C; configuration not given here) | > 45.7 | 25.1 | –
35 | O=C(ONC(=O)[C@H]1C2C=CC(C2)[C@@H]1C(=O)NOC(=O)c1ccccc1)c1ccccc1 | > 200 | 5.37 | –
36 | C=CN(c1ccccc1)c1nc(=O)[nH]c(=O)[nH]1 | > 200 | > 200 | –
37 | Cc1ccc(O)c(N=Nc2ccc(S(=O)(=O)O)cc2)n1 | – | – | inactive
38 | O=C(NCCCNCCCCNCCCNC(=O)c1cc(-c2ccccc2)nc2ccccc12)c1cc(-c2ccccc2)nc2ccccc12 | > 20 | 3.8 | –
39 | CC(C)=CCN1c2ccccc2NC(=O)CC1C (stereo not drawn) | 7.94 | 91.2 | –
40 | COC(=O)c1nn(C(=N)c2ccc(Cl)cc2)c2c1CCCCC2 | > 380 | > 380 | –
41 | O=c1[nH]c(=O)n([C@H]2C[C@@H](CO)[C@@H](O)C2)cc1I | > 708 | > 708 | –
42 | C=C[C@@H](C)[C@@H](O[Si](C)(C)C(C)(C)C)c1c(O)c2c(c3c(CCC)cc(=O)oc13)OC(C)(C)C=C2 | > 200 | 105 | –
